# What was measured:
# bri1-6 mutant seedling = experiment: Growth of mutant seedling defective in brassinosteroid receptor BRI1 (FIG. 4); assay type: in vivo
# Arabidopsis seedlings = experiment: Hypocotyl length / plant height of seedlings treated with brassinosteroid mimetic (FIG. 1, FIG. 2); assay type: in vivo; conditions: versus untreated plants
# Procedure: (A) Arabidopsis seedlings were grown for 7 days in light in the presence of increasing concentrations of a brassinosteroid mimetic of the disclosure. (B) a photo of seedlings grown at 0 and 20 μM of brassinosteroid mimetic.
# The brassinosteroid mimetics of the disclosure were tested and shown to block ethylene response by hyperactivating brassinosteroid signaling. The application of any one of the brassinosteroid mimetics of the disclosure, which are all closely related, results in massive increases in plant size. […] Additionally, reduction of internal concentrations of brassinosteroids by inhibition of brassinosteroid biosynthesis reduces the effects of the mimetic on growth. In FIG. 1, one can see the promotive effects of F1874-0108 (inset), a brassinosteroid mimetic of the disclosure, on plant height, with chemical treated plants being almost 100% taller than untreated plants. Hyperactivation of brassinosteroid signaling represents an effective means to increase plant biomass and increase the capability of plants with regard to disease resistance and other brassinosteroid regulated phenomena.
# [1] = system: seedlings treated with an inhibitor of BR synthesis (brassinazole); experiment: Hypocotyl length of seedlings with brassinosteroid synthesis inhibited by brassinazole (FIG. 1, FIG. 3); assay type: in vivo, Arabidopsis
# Procedure: Seedlings were treated with an inhibitor of BR synthesis (brassinazole; (BZ)). […] This is not consistent with what is seen for Bikinin, which is a constitutive activator of BR signaling and would be independent of BR synthesis (i.e. treatment with BZ would not result in inhibition of hypocotyl length in the presence of BZ).
# In FIG. 1, brassinosteroid production was limited by addition of brassinazole (BZ, which is a chemical inhibitor of brassinosteroid biosynthesis). […] In stark contrast, addition of brassinolide plus mimetic severely curtails this burst in growth because mimetic prevents the full inhibition of BIN2.
smiles,measurement,setting,value
O=C(O)CCC(=O)Nc1ccc(Br)cn1 [Bikinin],activation of BR pathway / hypocotyl growth,bri1-6 mutant seedling,promotion of long hypocotyls independent of BR
CCOC(=O)CSc1ncnc2c1cnn2-c1ccccc1 [F1874-0108],"plant height, chemical treated plants taller than untreated plants",Arabidopsis seedlings,~100%
same,seedling length versus BZ treated only,"[1]; BZ treated, no exogenous brassinolide added",substantially longer
CC(O)(c1ccccc1)C(Cc1ccc(Cl)cc1)n1cncn1 (centres unmarked) [brassinazole],hypocotyl length,"[1]; FIG. 3, BZ alone",shortening of the hypocotyls
CC(C)[C@H](C)[C@@H](O)[C@H](O)[C@@H](C)[C@H]1CC[C@H]2[C@@H]3COC(=O)[C@H]4C[C@H](O)[C@H](O)C[C@]4(C)[C@H]3CC[C@]12C [brassinolide],increase in length of BZ seedlings,"[1]; BZ treated, exogenous brassinolide added back",~400%

# Source: patent US10538522B2, “Brassinosteroid mimetics” (The Regents of the University of California, priority 2015, dated 2020)
